Laboratory results reported in patent US6321750A, “Condom lubricants with zinc salts as anti-viral additives” (priority 1999, dated 2001).
Like-named read-outs stand apart in the source and are kept apart here.

Legend:
[1] = Acidity tests: pH of 5% w/v zinc salt solutions; conditions: 5% w/v in distilled deionized water
HIV = HIV infectivity tests with zinc acetate 1.5% (diluted and undiluted viral stocks, p24 ELISA); format: cell-based, HIV-1
Source text: The tests described above, in Example 8, used an undiluted high-titer viral stock, which contained at least ten million infectious viral particles per ml. That concentration can be achieved in a laboratory only by special culturing, purification, and concentration techniques, and it is vastly higher than would actually occur in the ejaculate of an HIV-infected person (especially someone who is not in the end stages of the disease, and who might pose a significant risk of transmitting the virus to an unknowing sexual partner).
These tests used serial dilutions of the viral stocks, at ranges from 1:10 to 1:10,000. To create the 1:10 dilution, 500 μl of viral stock was mixed with 4.5 ml of RPMI medium. Subsequent dilutions added 9 ml of RPMI medium to 1 ml from the preceding dilution.
A 2 ml aliquot from each dilution was mixed with an equal volume of 3% ZnAc dissolved in sterile distilled water; after mixing, the zinc concentration was 5.3 mg/ml Zn. These mixtures were incubated for 2 hours, then diluted with culture medium at 1:30, 1:100, and 1:1000 to reduce the toxicity of the zinc to lymphocytes. Four ml of lymphocytes were mixed with 4 ml of each zinc/virus mixture. The zinc/virus/cell mixtures were incubated at 37° C. for 3 hours; zinc concentrations were 88, 27, and 2.7 μg/ml in the 30, 100, and 1000 dilutions.
Following the 3 hour incubation, the cells were washed twice in RPMI medium and resuspended in fresh medium containing 10% FCS. Each solution was inoculated (2 ml; estimated minimum 2×10^5 cells per well) into each of three wells in a 12-well plate and cultured for 27 days, with periodic sampling and measuring of p24 antigens.
Positive controls used 1:1000 dilutions of viral stock mixed with zinc-free RPMI. These controls were consistently highly infectious, even though their concentrations were 100× lower than the 1:10 mixtures in which infectivity was eliminated by zinc treatment. Other positive controls were tested at up to 100,000× dilutions; these were highly infective in two out of the three plates tested.
While carrying out the viral dilution tests, tests were also performed using 2 ml of 3% ZnAc solution in distilled water mixed with 2 ml aliquots of undiluted viral stock. The zinc/virus mixtures were incubated for 2 hours, diluted with RPMI at 1:100 and 1:1000 ratios, and mixed with lymphocytes for three hours; zinc concentrations were 27 and 2.7 μg/ml. The cells were washed twice, inoculated into 12 well plates as described above, and cultured for 27 days.

With Zinc acetate the “solubility in cell culture medium / water” value (20 mg in 1 ml RPMI culture medium containing protein) was “generated a precipitate in the culture medium”, the “solubility in water” value (general statement) was “highly soluble in water” and the “solubility in water” value (salt in a few drops of distilled water, room temperature) was “dissolved completely”. For the same substance, the “pH of solution (rounded)” value [1] was “about 6.2”, the pH of solution ([1]; 0.05 subtracted from meter reading, approximately accurate) was 6.27 and the HIV infectivity (HIV; 10×, 100×, 1000× diluted stocks, zinc/virus diluted 1:1000 (2.7 μg/ml Zn)) was “completely blocked infectivity”. For the same substance, the HIV infectivity (HIV; diluted stocks, zinc/virus diluted 1:100 (27 μg/ml Zn)) was “viral infectivity was completely blocked”, the HIV infectivity (HIV; diluted viral stocks, 1.5% zinc acetate 2 h) was “completely eliminated” and the HIV infectivity (HIV; diluted viral stocks, 1.5% zinc acetate 2 h, listed as ZnAc) was “completely eliminated the infectivity”. The “HIV infectivity (FIG. 4)” value (HIV; high-titer stocks, various concentrations of zinc acetate) was “either eliminated or suppressed”, the HIV infectivity (HIV; undiluted stock, zinc/virus diluted 1:100 (27 μg/ml Zn), 27 days) was “completely prevented infectivity” and the HIV infectivity (HIV; undiluted stock, zinc/virus diluted 1:1000 (2.7 μg/ml Zn), 27 days) was “delayed the onset of infection”.
